In patent US11066447B2, “Aureobasidium derivatives and methods of synthesis” (AureoGen Biosciences, Inc., priority 2016, dated 2021):
Converted amounts (≈) assume the structure as drawn. Where two headings read alike, the source gives them in different places. Numbered stars: 1 amine (or outer) side, 2 acyl side, 3 side chain; on linkers, the order of the positions; unused ones are H or OH. Square brackets hold non-standard residues; d marks the D form. Peptide text beside a SMILES is read from it. X33 = CN([C@@H](Cc1cccc(-c2ccc3ccccc3c2)c1)C(=O)[*:2])[*:1]; X32 = CN([C@@H](Cc1cccc(-c2cccc(F)c2)c1)C(=O)[*:2])[*:1]; X34 = CC[C@@H](C)[C@@H](O[*:1])C(=O)[*:2]; Hmp(2R,3S) = CC[C@H](C)[C@@H](O)C(=O)O; NMeVal(β-OH) = CN[C@H](C(=O)O)C(C)(C)O; NMeF = CN[C@@H](Cc1ccccc1)C(=O)O; aIle = CC[C@@H](C)[C@H](N)C(=O)O; NMeV = CN[C@H](C(=O)O)C(C)C

Experiments:
[1] = tested on: A. niger MMX 0624 ATCC 16888; experiment: MIC/MEC assay (CLSI microdilution); type: cell-based; conditions: for minimal effective concentration: RPMI plus 0.002% Tween-80, read-out: MEC
Description: (§1) Aureobasidin and test compounds (i.e., AbA derivatives of the present invention) were received from Kalexsyn, Inc. (Kalamazoo, Mich.) as powder and were stored at 4° C. until the day of assay. […] amphotericin was obtained from Sigma Aldrich and stored under like conditions. […] Ethanol (95%) was used as a solvent and diluent for all AbA compounds. Amphotericin B was tested from 0.06-64 μg/mL. Amphotericin B (Sigma Aldrich; St. Louis, Mo.; Cat No. A9528-100MG, Lot No. 120M4087) was dissolved and diluted with dimethylsulfoxide (DMSO; Sigma Aldrich; St. Louis, Mo.; Cat No. 472301 Lot No. SHBD2072V).
(§2) The solvents were added to the test agents and the stock solutions stood for approximately 1 hr at room temperature prior to use to auto sterilize. Stock solutions were prepared at 40× the desired top concentration in the test plate.
(§3) All of the test isolates were originally received from either the American Type Culture Collection (ATCC), clinical labs, or directly from Aureogen Biosciences. Organisms stored by Micromyx were cultured on agar medium appropriate to each organism. Colonies were picked by swab from the isolation plates and put into suspension in appropriate broth containing cryoprotectant. The suspensions were aliquoted into cryogenic vials and maintained at −80° C.
(§4) Prior to testing, Candida isolates were streaked from the frozen vials on Sabouraud dextrose agar. The yeast isolates were incubated for 48 hours at 35° C. before use. The fungal isolates were obtained from enumerated fungal stocks previously prepared at Micromyx and stored in phosphate buffered saline at 4° C.
(§5) Test Media. The medium employed for the MIC assay was RPMI-1640 medium from HyClone Laboratories (Logan, Utah; Lot No. AYB60287A). The medium was prepared according to Clinical and Laboratory Standards Institute (CLSI) guidelines (1, 2), and modified to include 0.002% Tween-80. Candida parapsilosis ATCC 22019 (MMX 2323) and Aspergillus fumigatus ATCC MYA-3626 (MMX 5280) were also tested without Tween-80 to provide data for the quality control of amphotericin B in accordance with CLSI (3) and to assess the effect of Tween-80 on the activity of the test agents.
(§6) Test Procedure. The MIC assay method followed the procedure described by CLSI (1, 2) and employed automated liquid handlers to conduct serial dilutions and liquid transfers. Automated liquid handlers included the Multidrop 384 (Labsystems, Helsinki, Finland), Biomek 2000 and Biomek FX (Beckman Coulter, Fullerton Calif.). The wells in columns 2-12 in standard 96-well microdilution plates (Costar 3795) were filled with 150 μl of the appropriate diluent (95% EtOH for investigational compounds, 100% DMSO for amphotericin B). These assay plates would become the ‘mother plates’ from which the assay ‘daughter plates’ would be prepared. The drugs (300 μL at 40× the desired top concentration in the test plates) were dispensed into the appropriate well in Column 1 of the mother plates. The Biomek 2000 was used to make two-fold serial dilutions through Column 11 in the “mother plate”. The wells of Column 12 contained no drug and served as the organism growth control wells.
(§7) The daughter plates were loaded with 185 μL per well on the Multidrop 384 with RPMI plus 0.002% Tween-80 or RPMI containing no Tween-80 for the testing of the two QC isolates. The daughter plates were prepared on the Biomek FX instrument which transferred 5 μL of drug solution from each well of a mother plate to each corresponding well of each daughter plate in a single step.
(§8) A standardized inoculum of each organism was prepared per CLSI methods (1, 2). For the Candida isolates, colonies were picked from the streak plate and a suspension was prepared in RPMI to equal a 0.5 McFarland standard. This suspension was diluted 1:100 in RPMI resulting in a final concentration of approximately 0.5-2.5×10^3 CFU/mL. […]

[2] = tested on: A. fumigatus MMX 6782 ATCC 13073; experiment: MIC/MEC assay (CLSI microdilution); type: cell-based; conditions: for minimal effective concentration: RPMI plus 0.002% Tween-80, read-out: MEC
Description: as §1, §2, §3, §4, §5, §6, §7, §8

[3] = tested on: A. fumigatus MMX 6781 ATCC MYA-4609; experiment: MIC/MEC assay (CLSI microdilution); type: cell-based
Description: as §1, §2, §3, §4, §5, §6, §7, §8

A. fumigatus MMX 5944 = experiment: MIC/MEC assay (CLSI microdilution); type: cell-based
Description: as §1, §2, §3, §4, §5, §6, §7, §8

A. flavus MMX 5948 = experiment: MIC/MEC assay (CLSI microdilution); type: cell-based
Description: as §1, §2, §3, §4, §5, §6, §7, §8

[4] = tested on: A. fumigatus MMX 5280 ATCC MYA-3626; experiment: MIC/MEC assay (CLSI microdilution); type: cell-based, Aspergillus fumigatus
Description: as §1, §2, §3, §4, §5, §6, §7, §8

[5] = tested on: C. parapsilosis MMX 2323 ATCC 22019; experiment: MIC assay (CLSI microdilution); type: cell-based, Candida parapsilosis
Description: as §1, §2, §3, §4, §5, §6, §7, §8

[6] = tested on: C. albicans MMX 2000 ATCC 10231; experiment: MIC assay (CLSI microdilution); type: cell-based
Description: as §1, §2, §3, §4, §5, §6, §7, §8

[7] = tested on: C. neoformans MMX 0634 ATCC 90112; experiment: MIC assay (CLSI microdilution); type: cell-based
Description: as §1, §2, §3, §4, §5, §6, §7, §8

[8] = Aspergillus niger, ATCC16888, 48 h
[9] = Aspergillus niger, ATCC16888, 48 h, RPMI plus 0.002% Tween-80, read-out: MIC
[10] = Aspergillus fumigatus, ATCC13073, 48 h
[11] = Aspergillus fumigatus, ATCC13073, 48 h, RPMI plus 0.002% Tween-80, read-out: MIC
[12] = Aspergillus fumigatus, 48 h, RPMI plus 0.002% Tween-80, read-out: MIC
[13] = Aspergillus fumigatus, RPMI plus 0.002% Tween-80, 48 hr
[14] = Aspergillus fumigatus, MMX5944, 48 h, RPMI plus 0.002% Tween-80
[15] = Aspergillus fumigatus, MMX5944, 48 h, RPMI plus 0.002% Tween-80, read-out: MIC
[16] = Aspergillus flavus, MMX5948, 48 h, RPMI plus 0.002% Tween-80
[17] = Aspergillus flavus, MMX5948, 48 h, RPMI plus 0.002% Tween-80, read-out: MIC
[18] = Aspergillus fumigatus, 48 h, RPMI plus 0.002% Tween-80, read-out: MEC
[19] = Aspergillus fumigatus, 48 h, Without Tween-80, read-out: MEC
[20] = Aspergillus fumigatus, 48 h, Without Tween-80, read-out: MIC
[21] = ATCC22019, RPMI plus 0.002% Tween-80, read-out: MIC
[22] = ATCC22019, Without Tween-80, read-out: MIC
[23] = Candida albicans, ATCC10231, RPMI plus 0.002% Tween-80, read-out: MIC
[24] = Cryptococcus neoformans, ATCC90112, RPMI plus 0.002% Tween-80, read-out: MIC
[25] = RPMI plus 0.002% Tween-80, 48 hr

| MIC [1, 9] [µg/mL] | MIC [2, 11] [µg/mL] | MIC [3, 12] [µg/mL] | MIC (A. fumigatus MMX 5944; [15]) [µg/mL] | MIC (A. flavus MMX 5948; [17]) [µg/mL] | MIC [4, 12] [µg/mL] | MIC [4, 20] [µg/mL] | MIC [5, 21] [µg/mL] | MIC [5, 22] [µg/mL] | MIC [6, 23] [µg/mL] | MIC [7, 24] [µg/mL] | SMILES | minimal effective concentration [1, 8] [µg/mL] | minimal effective concentration [2, 10] [µg/mL] | minimal effective concentration [3, 13] [µg/mL] | minimal effective concentration (A. fumigatus MMX 5944; [14]) [µg/mL] | minimal effective concentration (A. flavus MMX 5948; [16]) [µg/mL] | minimal effective concentration [4, 18] [µg/mL] | minimal effective concentration [4, 19] [µg/mL] | further results |
| --- | --- | --- | --- | --- | --- | --- | --- | --- | --- | --- | --- | --- | --- | --- | --- | --- | --- | --- | --- |
| 0.25 | > 64 | > 64 | > 64 | > 64 | > 64 | > 64 | 0.12 | 1 (≈ 0.836 µM) | 0.015 | 0.12 | CC[C@H](C)[C@@H]1NC(=O)[C@@H]2CCCN2C(=O)[C@H](Cc2cccc(-c3cccc(F)c3)c2)N(C)C(=O)[C@H](Cc2ccccc2)NC(=O)[C@H](C(C)C)N(C)C(=O)[C@@H]([C@@H](C)CC)OC(=O)[C@H](C(C)(C)O)N(C)C(=O)[C@H](CC(C)C)NC(=O)[C@H](C(C)C)N(C)C1=O [Compound 7] (cyclo(F[X32]PI[NMeV]L[NMeVal(β-OH)][Hmp(2R,3S)][NMeV])) | 0.25 | 0.5 | 1 | 0.5 | > 64 | 2 | 64 | – |
| 0.5 | > 64 | > 64 | > 64 | 1 | > 64 | > 64 | 0.5 | 2 (≈ 1.63 µM) | 0.12 | 0.12 | CC[C@H](C)[C@@H]1NC(=O)[C@@H]2CCCN2C(=O)[C@H](Cc2cccc(-c3ccc4ccccc4c3)c2)N(C)C(=O)[C@H](Cc2ccccc2)NC(=O)[C@H](C(C)C)N(C)C(=O)[C@@H]([C@@H](C)CC)OC(=O)[C@H](C(C)(C)O)N(C)C(=O)[C@H](CC(C)C)NC(=O)[C@H](C(C)C)N(C)C1=O [Compound 5] (cyclo(F[X33]PI[NMeV]L[NMeVal(β-OH)][Hmp(2R,3S)][NMeV])) | 0.5 | 0.5 | 0.5 | 0.5 | 0.5 | 0.5 | 4 | – |
| – | – | – | – | – | – | – | – | – | – | – | CC[C@@H](C)[C@@H]1NC(=O)[C@@H]2CCCN2C(=O)[C@H](Cc2ccccc2)N(C)C(=O)[C@H](Cc2ccccc2)NC(=O)[C@H](C(C)C)N(C)C(=O)[C@@H]([C@H](C)CC)OC(=O)[C@H](C(C)(C)O)N(C)C(=O)[C@H](CC(C)C)NC(=O)[C@H](C(C)C)N(C)C1=O [Aureobasidin A, reference compound] (cyclo(F[NMeF]P[aIle][NMeV]L[NMeVal(β-OH)][X34][NMeV])) | – | – | – | – | – | – | – | MEC [1, 25]: >64/>64 μg/mL; MIC [1, 25]: >64/>64 μg/mL; MEC [2, 25]: 2 µg/mL; MIC [2, 25]: > 64 µg/mL; MEC [3, 25]: >64/>64 μg/mL; MIC [3, 25]: >64/>64 μg/mL; MEC (A. fumigatus MMX 5944; [25]): 2 µg/mL; MIC (A. fumigatus MMX 5944; [25]): > 64 µg/mL; MEC (A. flavus MMX 5948; [25]): >64/>64 μg/mL; MIC (A. flavus MMX 5948; [25]): >64/>64 μg/mL; MEC [4, 25]: >64/>64 μg/mL; MIC [4, 25]: >64/>64 μg/mL; MEC ([4]; Without Tween-80, 48 hr): >64/>64 μg/mL; MIC ([4]; Without Tween-80, 48 hr): >64/>64 μg/mL; MIC ([5]; RPMI plus 0.002% Tween-80): 0.008 µg/mL; MIC ([5]; Without Tween-80): 0.25 µg/mL (≈ 0.227 µM); MIC ([6]; RPMI plus 0.002% Tween-80): ≤0.002 µg/mL; MIC ([7]; RPMI plus 0.002% Tween-80): 0.06 µg/mL |
